Laboratory results taken from patent US11453640B2, “Small molecules for disrupting the super elongation complex and inhibiting transcription elongation for cancer therapy” (NORTHWESTERN UNIVERSITY, priority 2018, dated 2022).

Columns and labels:
[1] = molecular target: T1, AFF4-CCNT1 interaction (GST-CCNT1 AA 1-300 and biotin-AFF4 peptide AA 32-67) (Homo sapiens, UniProt O60563); assay: AlphaLISA assay of the AFF4-CCNT1 interaction (Alpha Screen); assay type: binding
T1 construct: Recombinant GST-CCNT1 (1-300), which was purified by Glutathione Superflow Agarose from Rosetta cells; VCPBIO (peptide synthesis) Addgene P#432; host or cells: Rosetta cells
T1 sequence (O60563 1-300): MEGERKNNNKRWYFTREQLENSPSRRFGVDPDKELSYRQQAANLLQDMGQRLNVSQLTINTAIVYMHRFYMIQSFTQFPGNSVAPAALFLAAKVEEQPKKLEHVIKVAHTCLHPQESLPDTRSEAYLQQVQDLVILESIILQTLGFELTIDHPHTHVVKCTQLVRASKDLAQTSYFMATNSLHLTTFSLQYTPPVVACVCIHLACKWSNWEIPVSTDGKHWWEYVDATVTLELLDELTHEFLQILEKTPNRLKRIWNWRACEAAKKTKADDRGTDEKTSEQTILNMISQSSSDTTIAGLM
Source text: FIG. 1. Peptidomimetic identification of disruptors of the AFF4-CCNT1 interaction within the Super Elongation Complex. (A) Schematic for the identification of small molecule inhibitors of the AFF4-CCNT1 interaction using in silico high-throughput screening. Compounds from the ZINC database were docked with the AFF4-CCNT1 structure (4IMY) using a three-tier glide-docking algorithm, which led to 40 candidates. Residues forming the deep binding pocket of CCNT1 are labeled orange and residues of the AFF4 peptide are labeled red. (B) Validation screening identified KL-1 as a potential SEC disruptor using AlphaLISA screening. GST-CCNT1 (AA 1-300) and biotin-labeled AFF4 peptide (AA 32-67) were used to measure the AFF4-CCNT1 interaction with the AlphaLISA assay. (C) Similarity search for KL-1-like molecules identified KL-2. The peptidomimetic potential of KL-1 and KL-2 can be seen by overlaying them with the AFF4 peptide LFAEP structure. (D) Dose-dependent inhibition of KL-1 and KL-2 on AFF4-CCNT1 interaction. The Ki constants of both compounds were measured with the AlphaLISA assays. (E) Treatment of HEK293T cells with KL-1 and KL-2 results in reduced protein levels of SEC components AFF1 and AFF4 but not CDK9 or CCNT1. HEK293T cells were treated with 20 μM of SEC inhibitors KL-1 or KL-2 for 6 hr. 5 μl, 10 and 20 μl cell lysates were loaded and the protein levels of AFF1, AFF4, CCNT1, CDK9 and Tubulin (load control) were determined by western blotting.
FIG. 8, related to FIG. 1. Peptidomimetic identification of disruptors of the AFF4-CCNT1 interaction within the Super Elongation Complex. (A) Schematic of AlphaLISA assay of the AFF4-CCNT1 interaction. Anti-GST AlphaLISA acceptor beads and AlphaScreen streptavidin donor beads (Perkin Elmer) were used to detect the interaction of GST-CCNT1 (AA1-300) and biotin-AFF4 (AA32-67). (B-C) Optimization of the AlphaLISA assay with various biotin-AFF4 peptide and GST-CCNT1 concentrations. No CCNT1 (B) and mutant AFF4 (C) were used as negative controls. Data are represented as Mean+/−SD. (D) Scheme for chemical synthesis of SEC inhibitors KL-1 and KL-2. Reagents and conditions: a. LDA, THF, −78° C., 15 min., then diethyl oxalate, −78° C. to room temperature. b. NaOH, THF/H2O, room temperature, 15 min. c. EEDQ, 5-chloro-2-methylaniline, THF, room temperature, 24 hr. […] 293T cells were treated with 20 μM of KL-1 or KL-2 for 6 hr, and the protein levels of BRD2, BRD4, Pol II (RPB1), SPT5, MED26, MYC, HSP90 (load control) and Tubulin (load control) were measured by western blotting. (F) Treatment of HCT-116 cells with KL-1 and KL-2 reduced protein levels of SEC components AFF1 and AFF4 but not CDK9 or CCNT1. HCT-116 cells were treated with 20 μM of KL-1 or KL-2 for 6 hr, and the protein levels of AFF1, AFF4, CCNT1, CDK9 and Tubulin (load control) were determined by western blotting. (G-H) Treating cells with KL-1 and KL-2 results in reduced levels of AFF 1 and AFF4. FLAG-AFF1 (G) and FLAG-AFF4 (H) were expressed under the Tet-inducible promoter in HEK293T cells. Cells were treated with 20 μM of the indicated inhibitors for 6 hr for western blotting. […] RNA-seq was performed in HEK293T cells treated for 12 hr with 20 μM of the indicated inhibitors. The log2CPM (counts per million) of the SEC subunits were calculated with HTseq. KL-1 and KL-2 had no significant effects on CCNT1, CDK9 and AFF1 expression, but modest increases in the mRNA levels of AFF4 and ELL2 were observed (n=3). Unpaired two-way ANOVA was used for the statistical testes. **,p<0.05, ***,p<0.001.
To test if candidate compounds can disrupt the AFF4-CCNT1 interaction in vitro, we established and optimized a bead-based AlphaLISA assay with recombinant CCNT1 (1-300) protein and synthesized Biotin-AFF4 peptides (AA 32-67) (FIGS. 8A, 8B and 8C).
AlphaLISA Assay. The interaction of CCNT1-AFF4 was measured by Perkin Elmer's bead-based AlphaLISA assays. […]

H2171 and SW1271 cells = assay: CellTiter-Glo cell proliferation of small cell lung cancer cells; assay type: cell-based, human; details: 3 days, increasing concentrations
Source text: FIG. 6. SEC disruption targets MYC and MYC target genes. (A-B) Venn diagram of deregulated genes in 293T cells by KL-1 and KL-2. […] (C) Heat map showing the expression changes in response to SEC inhibitors, with differentially expressed canonical MYC targets, RNA splicing factors, and core SNRP assembly genes highlighted. […] Each cluster is represented by different colors and a circle node denotes each enriched term. (E) MA plots of RNA splicing and Hallmark MYC target genes in KL-2 treated, AFF1 and AFF4 co-depletion, and ELL2-depleted cells. […] The MYC genes, the PRMT5 gene, and genes encoding SEC components are denoted as red squares. (F) Western analysis of MYC protein levels in the MYC lowly expressed small cell lung cancer cell line […] and MYC-amplified small cell lung cancer cell line H2171. (G) Gained SEC occupancy at the MYC binding sites in MYC highly expressed H2171 cells. Genome browser tracks of MYC and SEC occupancy around the PRMT5 gene in SW1271 and H2171 cells are shown. (H) ChIP-seq analysis of MYC binding peaks in SW1271 and H2171 cells. […] The SEC and MYC peaks were determined by MACS with a p-value cutoff at 1E-5. […] Both cell lines were treated with increasing concentrations of KL-1 and KL-2 for 3 days and the cell proliferation was measured with CellTiter-Glo luminescent cell viability assay (Promega) (n=3-6).

Structure (SMILES): COc1cccc(C(=O)CC(=O)C(=O)Nc2cc(Cl)ccc2C)c1 [KL-1, N-(5-chloro-2-methylphenyl)-4-oxo-4-(3-methoxyphenyl)-2-oxobutanamide]
- Ki ([1]; AlphaLISA, IC50 converted to Ki with the Cheng and Prusoff equation, read-out: Ki, inhibition of the AFF4-CCNT1 interaction): 3.48 µM
- disruption of the AFF4-CCNT1 interaction ([1]; tested at 20 μM): could inhibit the interaction of AFF4-CCNT1
- sensitivity of high MYC expressing H2171 cells versus low MYC expressing SW1271 cells (H2171 and SW1271 cells): more sensitive
